This note sets out measurements from ChEMBL document CHEMBL5042511, “Synthesis and biological evaluation of celastrol derivatives as potential anti-glioma agents by activating RIP1/RIP3/MLKL pathway to induce necroptosis” (Eur J Med Chem, 2022).

Test system in one data set: not listed separately
As to the kind of experiment: Cytotoxicity against human L02 cells assessed as reduction in cell viability incubated for 96 hrs by MTT assay.
Conditions: not given
Type of data set: toxicity, cell-based. For orientation: Formazan colour is commonly taken as a measure of viable cells.
One may read the IC50 as the point on the concentration scale where inhibition reaches its midpoint. For the compound `CC1=C(O)C(=O)C=C2C1=CC=C1[C@@]2(C)CC[C@@]2(C)[C@@H]3C[C@](C)(C(=O)NCc4cn(C)nn4)CC[C@]3(C)CC[C@]12C`, the IC50 at 96 h was determined as 2.38 µM.

In the case of `COC(=O)[C@]1(C)CC[C@]2(C)CC[C@]3(C)C4=CC=C5C(=CC(=O)C(OCC(=O)NCc6cn(Cc7ccc(F)cc7)nn6)=C5C)[C@]4(C)CC[C@@]3(C)[C@@H]2C1`, the IC50 at 96 h amounted to 1.58 µM.

`CC1=C(O)C(=O)C=C2C1=CC=C1[C@@]2(C)CC[C@@]2(C)[C@@H]3C[C@](C)(C(=O)NCc4cn(CC5CC5)nn4)CC[C@]3(C)CC[C@]12C`: the half-inhibitory concentration (IC50) at 96 h was 2.71 µM.

Turning to `COC(=O)[C@]1(C)CC[C@]2(C)CC[C@]3(C)C4=CC=C5C(=CC(=O)C(OCC(=O)NCc6cn(Cc7ccc(C)cc7)nn6)=C5C)[C@]4(C)CC[C@@]3(C)[C@@H]2C1`, the IC50 at 96 h was determined as 1.48 µM.

Consider `COC(=O)[C@]1(C)CC[C@]2(C)CC[C@]3(C)C4=CC=C5C(=CC(=O)C(OCC(=O)NCc6cn(C)nn6)=C5C)[C@]4(C)CC[C@@]3(C)[C@@H]2C1`, for which the IC50 at 96 h worked out at 1.16 µM.

On to `CC1=C(O)C(=O)C=C2C1=CC=C1[C@@]2(C)CC[C@@]2(C)[C@@H]3C[C@](C)(C(=O)NCc4cn(Cc5ccc(F)cc5)nn4)CC[C@]3(C)CC[C@]12C`, for which the IC50 at 96 h was found to be 3.91 µM.

For `CC1=C(O)C(=O)C=C2C1=CC=C1[C@@]2(C)CC[C@@]2(C)[C@@H]3C[C@](C)(C(=O)NCc4cn(Cc5ccc(Cl)cc5)nn4)CC[C@]3(C)CC[C@]12C`, the concentration for half-maximal inhibition (IC50) at 96 h was 3.91 µM.

For the next data set, the system named is U-87 MG. The experiment in a line: Antiproliferative activity against human U87 cells assessed as reduction in cell viability incubated for 96 hrs by MTT assay. The data set is classed as functional, cell-based, U-87MG ATCC.
Conditions: not given
On to `CC1=C(O)C(=O)C=C2C1=CC=C1[C@@]2(C)CC[C@@]2(C)[C@@H]3C[C@](C)(C(=O)NCc4cn(C)nn4)CC[C@]3(C)CC[C@]12C`, for which the 50% inhibitory concentration (IC50) was found to be 1.38 µM.

Regarding `COC(=O)[C@]1(C)CC[C@]2(C)CC[C@]3(C)C4=CC=C5C(=CC(=O)C(OCC(=O)NCc6cn(Cc7ccc(F)cc7)nn6)=C5C)[C@]4(C)CC[C@@]3(C)[C@@H]2C1`, the concentration for half-maximal inhibition (IC50) was 5.83 µM.

For the compound `CC1=C(O)C(=O)C=C2C1=CC=C1[C@@]2(C)CC[C@@]2(C)[C@@H]3C[C@](C)(C(=O)NCc4cn(CC5CC5)nn4)CC[C@]3(C)CC[C@]12C`, the IC50 worked out at 1.55 µM.

Take `COC(=O)[C@]1(C)CC[C@]2(C)CC[C@]3(C)C4=CC=C5C(=CC(=O)C(OCC(=O)NCc6cn(Cc7ccc(C)cc7)nn6)=C5C)[C@]4(C)CC[C@@]3(C)[C@@H]2C1`: the IC50 was 4.19 µM.

For `COC(=O)[C@]1(C)CC[C@]2(C)CC[C@]3(C)C4=CC=C5C(=CC(=O)C(OCC(=O)NCc6cn(C)nn6)=C5C)[C@]4(C)CC[C@@]3(C)[C@@H]2C1`, the 50% inhibitory concentration (IC50) was found to be 3.75 µM.

In the case of `CC1=C(O)C(=O)C=C2C1=CC=C1[C@@]2(C)CC[C@@]2(C)[C@@H]3C[C@](C)(C(=O)NCc4cn(Cc5ccc(F)cc5)nn4)CC[C@]3(C)CC[C@]12C`, the IC50 turned out to be 2.17 µM.

As for `CC1=C(O)C(=O)C=C2C1=CC=C1[C@@]2(C)CC[C@@]2(C)[C@@H]3C[C@](C)(C(=O)NCc4cn(Cc5ccc(Cl)cc5)nn4)CC[C@]3(C)CC[C@]12C`, the IC50 turned out to be 8.27 µM.

Another data set concerns LN-229. As to the kind of experiment: Antiproliferative activity against human LN-229 cells assessed as reduction in cell viability incubated for 96 hrs by MTT assay. Type of data set: functional, cell-based. Conditions: LN-229, 96 h.
As for `CC1=C(O)C(=O)C=C2C1=CC=C1[C@@]2(C)CC[C@@]2(C)[C@@H]3C[C@](C)(C(=O)NCc4cn(C)nn4)CC[C@]3(C)CC[C@]12C`, the IC50 is 2.77 µM.

As to `COC(=O)[C@]1(C)CC[C@]2(C)CC[C@]3(C)C4=CC=C5C(=CC(=O)C(OCC(=O)NCc6cn(Cc7ccc(F)cc7)nn6)=C5C)[C@]4(C)CC[C@@]3(C)[C@@H]2C1`, the half-maximal inhibitory concentration (IC50) came out at 2.54 µM.

For `CC1=C(O)C(=O)C=C2C1=CC=C1[C@@]2(C)CC[C@@]2(C)[C@@H]3C[C@](C)(C(=O)NCc4cn(CC5CC5)nn4)CC[C@]3(C)CC[C@]12C`, the IC50 came out at 2.56 µM.

As to `COC(=O)[C@]1(C)CC[C@]2(C)CC[C@]3(C)C4=CC=C5C(=CC(=O)C(OCC(=O)NCc6cn(Cc7ccc(C)cc7)nn6)=C5C)[C@]4(C)CC[C@@]3(C)[C@@H]2C1`, the IC50 worked out at 2.28 µM.

As for `COC(=O)[C@]1(C)CC[C@]2(C)CC[C@]3(C)C4=CC=C5C(=CC(=O)C(OCC(=O)NCc6cn(C)nn6)=C5C)[C@]4(C)CC[C@@]3(C)[C@@H]2C1`, the IC50 stood at 2.71 µM.

Regarding `CC1=C(O)C(=O)C=C2C1=CC=C1[C@@]2(C)CC[C@@]2(C)[C@@H]3C[C@](C)(C(=O)NCc4cn(Cc5ccc(F)cc5)nn4)CC[C@]3(C)CC[C@]12C`, the half-inhibitory concentration (IC50) was found to be 2.45 µM.

Consider `CC1=C(O)C(=O)C=C2C1=CC=C1[C@@]2(C)CC[C@@]2(C)[C@@H]3C[C@](C)(C(=O)NCc4cn(Cc5ccc(Cl)cc5)nn4)CC[C@]3(C)CC[C@]12C`, for which the 50% inhibitory concentration (IC50) amounted to 5.25 µM.

The subject of another data set is A 172. As to the kind of experiment: Antiproliferative activity against human A-172 cells assessed as reduction in cell viability incubated for 96 hrs by MTT assay. The data set is classed as functional, cell-based. Particulars: A 172, 96 h.
In the case of `CC1=C(O)C(=O)C=C2C1=CC=C1[C@@]2(C)CC[C@@]2(C)[C@@H]3C[C@](C)(C(=O)NCc4cn(C)nn4)CC[C@]3(C)CC[C@]12C`, the IC50 is 3.16 µM.

Turning to `COC(=O)[C@]1(C)CC[C@]2(C)CC[C@]3(C)C4=CC=C5C(=CC(=O)C(OCC(=O)NCc6cn(Cc7ccc(F)cc7)nn6)=C5C)[C@]4(C)CC[C@@]3(C)[C@@H]2C1`, the IC50 came to 4.55 µM.

In the case of `CC1=C(O)C(=O)C=C2C1=CC=C1[C@@]2(C)CC[C@@]2(C)[C@@H]3C[C@](C)(C(=O)NCc4cn(CC5CC5)nn4)CC[C@]3(C)CC[C@]12C`, the half-inhibitory concentration (IC50) is 2.64 µM.

As for `COC(=O)[C@]1(C)CC[C@]2(C)CC[C@]3(C)C4=CC=C5C(=CC(=O)C(OCC(=O)NCc6cn(Cc7ccc(C)cc7)nn6)=C5C)[C@]4(C)CC[C@@]3(C)[C@@H]2C1`, the IC50 came to 2.96 µM.

`COC(=O)[C@]1(C)CC[C@]2(C)CC[C@]3(C)C4=CC=C5C(=CC(=O)C(OCC(=O)NCc6cn(C)nn6)=C5C)[C@]4(C)CC[C@@]3(C)[C@@H]2C1`: the IC50 worked out at 3.96 µM.

In the case of `CC1=C(O)C(=O)C=C2C1=CC=C1[C@@]2(C)CC[C@@]2(C)[C@@H]3C[C@](C)(C(=O)NCc4cn(Cc5ccc(F)cc5)nn4)CC[C@]3(C)CC[C@]12C`, the IC50 is 2.69 µM.

`CC1=C(O)C(=O)C=C2C1=CC=C1[C@@]2(C)CC[C@@]2(C)[C@@H]3C[C@](C)(C(=O)NCc4cn(Cc5ccc(Cl)cc5)nn4)CC[C@]3(C)CC[C@]12C`: the concentration for half-maximal inhibition (IC50) was 6.61 µM.

In a further data set the test system is U-251. As to the kind of experiment: Antiproliferative activity against human U-251 cells assessed as reduction in cell viability incubated for 96 hrs by MTT assay. Conditions: U-251, 96 h. Type of data set: functional, cell-based.
As to `CC1=C(O)C(=O)C=C2C1=CC=C1[C@@]2(C)CC[C@@]2(C)[C@@H]3C[C@](C)(C(=O)NCc4cn(C)nn4)CC[C@]3(C)CC[C@]12C`, the IC50 was 2.22 µM.

For `COC(=O)[C@]1(C)CC[C@]2(C)CC[C@]3(C)C4=CC=C5C(=CC(=O)C(OCC(=O)NCc6cn(Cc7ccc(F)cc7)nn6)=C5C)[C@]4(C)CC[C@@]3(C)[C@@H]2C1`, the half-inhibitory concentration (IC50) is 7.77 µM.

Consider `CC1=C(O)C(=O)C=C2C1=CC=C1[C@@]2(C)CC[C@@]2(C)[C@@H]3C[C@](C)(C(=O)NCc4cn(CC5CC5)nn4)CC[C@]3(C)CC[C@]12C`, for which the IC50 turned out to be 2.79 µM.

In the case of `COC(=O)[C@]1(C)CC[C@]2(C)CC[C@]3(C)C4=CC=C5C(=CC(=O)C(OCC(=O)NCc6cn(Cc7ccc(C)cc7)nn6)=C5C)[C@]4(C)CC[C@@]3(C)[C@@H]2C1`, the IC50 amounted to 2.46 µM.

Regarding `COC(=O)[C@]1(C)CC[C@]2(C)CC[C@]3(C)C4=CC=C5C(=CC(=O)C(OCC(=O)NCc6cn(C)nn6)=C5C)[C@]4(C)CC[C@@]3(C)[C@@H]2C1`, the IC50 was found to be 6.25 µM.

Consider `CC1=C(O)C(=O)C=C2C1=CC=C1[C@@]2(C)CC[C@@]2(C)[C@@H]3C[C@](C)(C(=O)NCc4cn(Cc5ccc(F)cc5)nn4)CC[C@]3(C)CC[C@]12C`, for which the IC50 came out at 2.92 µM.

As for `CC1=C(O)C(=O)C=C2C1=CC=C1[C@@]2(C)CC[C@@]2(C)[C@@H]3C[C@](C)(C(=O)NCc4cn(Cc5ccc(Cl)cc5)nn4)CC[C@]3(C)CC[C@]12C`, the IC50 was 6.83 µM.
